Laboratory results taken from ChEMBL document CHEMBL1123212 (J Med Chem, 1986).

Experiments:
Rattus norvegicus [1] = organism: Rattus norvegicus; test: animal or person
Description: In vivo inhibition of apomorphine induced hyperactivity in rats.

Rattus norvegicus [2] = organism: Rattus norvegicus; test: animal or person; remark: listed apart in the source
Description: In vivo inhibition of apomorphine induced stereotypy in rats.

in vivo = settings: rat, ip
Description: Compound was tested for its acute toxicity in rat after ip administration

Rattus norvegicus [3] = test: Compound was tested for anti-dopamine activity in vivo by its ability to inhibit apomorphine induced hyperactivity in rat; type: functional
Rattus norvegicus [4] = test: Compound was tested for anti-dopamine activity in vivo by its ability to inhibit apomorphine induced stereotypy in rat; type: functional

Row | SMILES | ED50 (Rattus norvegicus [1]) [µmol/kg] | ED50 (Rattus norvegicus [2]) [µmol/kg] | LD50 (in vivo) [µmol/kg] | ED50 (Rattus norvegicus [3]) [µmol/kg] | ED50 (Rattus norvegicus [4]) [µmol/kg]
1 | CCc1cc(Br)c(O)c(C(=O)NC[C@@H]2CCCN2CC)c1OC | 0.87 | 1.45 | – | – | –
2 | CCN1CCC[C@H]1CNC(=O)c1c(O)c(C)cc(C)c1OC | 1.86 | 3.1 | – | – | –
3 | CCc1cc(F)c(OC)c(C(=O)NC[C@@H]2CCCN2CC)c1O | 0.065 | 0.31 | – | – | –
4 | CCN1CCC[C@H]1CNC(=O)c1cc(Br)cc(Br)c1OC | 0.66 | 2.69 | – | – | –
5 | CCN1CCC[C@H]1CNC(=O)c1c(O)c(Br)cc(Cl)c1OC | 0.95 | 1.35 | – | – | –
6 | CCN1CCC[C@H]1CNC(=O)c1c(O)c(Br)cc(F)c1OC | 0.16 | 0.42 | – | – | –
7 | CCc1cc(Br)c(OC)c(C(=O)NC[C@@H]2CCCN2CC)c1O | 0.085 | 0.47 | 320 | – | –
8 | CCN1CCC[C@H]1CNC(=O)c1c(O)c(C)cc(Cl)c1OC | 0.74 | 1.32 | – | – | –
9 | CCc1ccc(OC)c(C(=O)NC[C@@H]2CCCN2CC)c1O | 0.12 | 0.28 | 370 | – | –
10 | CCc1cc(Cl)c(O)c(C(=O)NC[C@@H]2CCCN2CC)c1OC | 2.5 | 1.51 | – | – | –
11 | CCN1CCC[C@H]1CNC(=O)c1c(O)c(Br)cc(Br)c1OC | 0.65 | 1.48 | 450 | – | –
12 | CCN1CCC[C@@H]1CNC(=O)c1c(O)c(Cl)cc(Cl)c1OC | 1.07 | 32 | – | – | –
13 | CCN1CCC[C@H]1CNC(=O)c1cc(Br)cc(Br)c1O | 28 | > 40 | – | – | –
14 | CCCc1cc(Cl)c(OC)c(C(=O)NC[C@@H]2CCCN2CC)c1O | 0.1 | 0.35 | – | – | –
15 | CCc1cc(CC)c(OC)c(C(=O)NC[C@@H]2CCCN2CC)c1O | 0.076 | 0.46 | 530 | – | –
16 | CCc1cc(Cl)c(OC)c(C(=O)NC[C@@H]2CCCN2CC)c1O [ETICLOPRIDE] | 0.032 | 0.19 | 330 | – | –
17 | O=C(CCCN1CCC(O)(c2ccc(Cl)cc2)CC1)c1ccc(F)cc1 [HALOPERIDOL] | – | – | 93 | 0.29 | 0.27
18 | CCN1CCC[C@H]1CNC(=O)c1c(O)c(Cl)cc(Cl)c1OC [RACLOPRIDE] | 0.13 | 1.7 | 660 | – | –
